Test results taken from US20110065734A1, “NOVEL BIFUNCTIONAL COMPOUNDS WHICH INHIBIT PROTEIN KINASES AND HISTONE DEACETYLASES” (4SC AG, priority 2007, published 2011).
Counter-ions that a name gives are not always drawn.

How the values were obtained:
A549 NSCLC cell line = test: Cellular cytotoxicity assay (Alamar Blue), A549; assay type: cell-based; details: Homo sapiens, A549; 72 h; only a range over the listed compounds is given; read-out: Cytotoxicity towards A549 NSCLC cell line IC50
Protocol: (§1) The anti-proliferative activity of the chimeric HDAC and protein kinase inhibitory chimeric compounds of the present invention was evaluated using HeLa cervical carcinoma, A549 NSCLC, SKOV3 ovarian carcinoma, Cal27 head and neck cancer, K562 chronic myeloid leukemia (CML) and EOL1 acute hypereosinophilic myeloid leukemia, cell lines. For quantification of cellular proliferation/living cells the Alamar Blue (Resazurin) cell viability assay was applied (O'Brien et al. Eur Biochem. 267, 5421-5426, 2000). In this assay Resazurin is reduced to the fluorescent resorufin by cellular dehydrogenase activity, correlating with viable, proliferating cells. The examples were dissolved as 20 mM solutions in dimethylsulfoxide (DMSO) and subsequently diluted in semi-logarithmic steps. Cell lines were seeded at respective density into 96 well flat bottom plates in a volume of 200 μl per well. 24 h after seeding 1 μl each of the compound dilutions were added into each well of the 96 well plate. Each compound dilution was tested as quadruplicates. Wells containing untreated control cells were filled with […] DMEM medium containing 0.5% v:v DMSO. The cells were then incubated with the substances for 72 h at 37° C. in a humidified atmosphere containing 5% carbon dioxide. To determine the viability of the cells, 20 μl of an Resazurin solution (Sigma; 90 mg/l) were added. After 4 h incubation at 37° C. the fluorescence was measured at an extinction of 544 nm and an emission of 590 nm. For the calculation of the cell viability the emission value from untreated cells was set as 100% viability and the emission rates of treated cells were set in relation to the values of untreated cells. Viabilities were expressed as % values. The corresponding IC50 values of the compounds for cytotoxic activity are determined from the concentration-effect curves by means of non-linear regression.

[1] = biological target: T1, recombinant HDAC1 isolated from HEK293 cells with heterologous HDAC1 expression (Homo sapiens, UniProt Q13547); test: Fluorimetric rHDAC1 activity assay; assay type: biochemical; details: only a range of IC50 over the compounds given; read-out: rHDAC1 inhibitory activity IC50
T1 construct: made in house
T1 sequence (Q13547 whole entry): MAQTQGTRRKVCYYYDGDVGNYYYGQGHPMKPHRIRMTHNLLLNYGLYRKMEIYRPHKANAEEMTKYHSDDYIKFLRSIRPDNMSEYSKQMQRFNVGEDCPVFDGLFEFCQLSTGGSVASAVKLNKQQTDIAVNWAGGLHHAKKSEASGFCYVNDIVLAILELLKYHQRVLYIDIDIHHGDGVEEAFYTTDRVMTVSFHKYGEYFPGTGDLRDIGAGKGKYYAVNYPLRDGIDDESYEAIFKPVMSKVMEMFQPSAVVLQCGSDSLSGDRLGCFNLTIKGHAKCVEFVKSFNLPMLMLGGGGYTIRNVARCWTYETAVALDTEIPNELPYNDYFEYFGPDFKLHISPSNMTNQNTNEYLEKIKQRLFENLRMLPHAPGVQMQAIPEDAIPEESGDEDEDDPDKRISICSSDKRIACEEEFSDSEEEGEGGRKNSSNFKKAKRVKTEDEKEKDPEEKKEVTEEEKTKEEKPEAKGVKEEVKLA

[2] = tested on: HeLa cervical carcinoma cell line; test: Cellular cytotoxicity assay (Alamar Blue), HeLa; assay type: cell-based; details: Homo sapiens, 72 h, only a range over the listed compounds is given, read-out: Cytotoxicity towards HeLa cervical cell line IC50
Protocol: as §1

[3] = tested on: SKOV3 ovarian carcinoma cell line; test: Cellular cytotoxicity assay (Alamar Blue), SKOV3; assay type: cell-based; details: Homo sapiens, SK-OV-3; 72 h; only a range over the listed compounds is given; read-out: Cytotoxicity towards SKOV3 cell line IC50
Protocol: as §1

Compound | melting point [°C] | IC50 (A549 NSCLC cell line) [nM] | IC50 [1] [nM] | other results
Nc1ccccc1NC(=O)c1ccc(C(=O)Nc2cccc(Nc3nc(-c4cccnc4)cs3)c2)s1 (as salt: salt) [[28], N^2-(2-aminophenyl)-N^5-(3-(4-(pyridin-3-yl)thiazol-2-ylamino)phenyl)thiophene-2,5-dicarboxamide] | 222.3 |  |  | 
Nc1ccccc1NC(=O)c1ccc(C(=O)Nc2cccc(Nc3nc(-c4cccnc4)cs3)c2)cc1 (hydrate or solvate) [[18], N^1-(2-aminophenyl)-N^4-(3-(4-(pyridin-3-yl)thiazol-2-ylamino)phenyl)terephthalamide hydrate] | 224.8 to 224.9 |  |  | 
Nc1ccccc1NC(=O)/C=C/c1ccc(-c2ccc3ncnc(Nc4ccc(OCc5cccc(F)c5)c(Cl)c4)c3c2)cc1 [[10], (E)-N-(2-aminophenyl)-3-(4-(4-(3-chloro-4-(3-fluorobenzyloxy)phenylamino)quinazolin-6-yl)phenyl)acrylamide] |  | ≥ 1100 | ≥ 35.3 | 
Nc1ccccc1NC(=O)CCc1ccc(-c2ccc3ncnc(Nc4ccc(OCc5cccc(F)c5)c(Cl)c4)c3c2)cc1 [[12], N-(2-aminophenyl)-3-(4-(4-(3-chloro-4-(3-fluorobenzyloxy)phenylamino)quinazolin-6-yl)phenyl)propanamide] |  | ≥ 1100 | ≥ 35.3 | 
Nc1ccccc1NC(=O)/C=C/c1ccc(-c2ccc3ncnc(Nc4ccc(OCc5cccc(F)c5)c(Cl)c4)c3c2)o1 [[13], (E)-N-(2-aminophenyl)-3-(5-(4-(3-chloro-4-(3-fluorobenzyloxy)phenylamino)quinazolin-6-yl)furan-2-yl)acrylamide] |  | ≥ 1100 | ≥ 35.3 | 
O=C(NO)c1ccc(C(=O)Nc2cccc(Nc3nc(-c4cccnc4)cs3)c2)cc1 [[17], N^1-hydroxy-N^4-(3-(4-(pyridin-3-yl)thiazol-2-ylamino)phenyl)terephthalamide] | 205.5 | ≥ 2950 |  | 
Cc1ccc(NC(=O)c2ccc(C(=O)Nc3ccccc3N)cc2)cc1Nc1nc(-c2cccnc2)cs1 [[21], N^1-(2-aminophenyl)-N^4-(4-methyl-3-(4-(pyridin-3-yl)thiazol-2-ylamino)phenyl)terephthalamide] | 147.1 |  |  | 
O=C(/C=C/c1ccc(C(=O)Nc2cccc(Nc3nc(-c4cccnc4)cs3)c2)cc1)NO [[22], (E)-4-(3-(hydroxyamino)-3-oxoprop-1-enyl)-N-(3-(4-(pyridin-3-yl)thiazol-2-ylamino)phenyl)benzamide] | 100.6 |  | 77 to 1400 | 
Cc1ccc(NC(=O)c2ccc(C(=O)Nc3ccccc3N)nc2)cc1Nc1nccc(-c2cccnc2)n1 [[23], N^2-(2-aminophenyl)-N^5-(4-methyl-3-(4-(pyridin-3-yl)pyrimidin-2-ylamino)phenyl)pyridine-2,5-dicarboxamide] | 150.5 to 152.5 |  |  | 
Cc1ccc(NC(=O)c2ccc(C(=O)Nc3ccccc3N)s2)cc1Nc1nc(-c2cccnc2)cs1 [[27], N^2-(2-aminophenyl)-N^5-(4-methyl-3-(4-(pyridin-3-yl)thiazol-2-ylamino)phenyl)thiophene-2,5-dicarboxamide] | 242.4 |  |  | 
Nc1ccccc1NC(=O)c1ccc(C(=O)Nc2cccc(Nc3nccc(-c4cccnc4)n3)c2)cc1 [[31], N-(2-Amino-phenyl)-N′-[3-(4-pyridin-3-yl-pyrimidin-2-ylamino)-phenyl]-terephthalamide] |  | ≥ 2950 |  | 
Nc1ccccc1NC(=O)c1ccc(C(=O)Nc2ccc(Cl)c(Nc3nccc(-c4cccnc4)n3)c2)cc1 [[32], N-(2-Amino-phenyl)-N′-[4-chloro-3-(4-pyridin-3-yl-pyrimidin-2-ylamino)-phenyl]-terephthalamide compound with hydrochloric acid] |  | ≥ 2950 |  | 
O=C(/C=C/c1ccc(C(=O)Nc2cccc(Nc3nc(-c4cccnc4)cs3)c2)s1)NO [[34], (E)-5-(3-(hydroxyamino)-3-oxaprop-1-enyl)-N-(3-(4-(pyridin-3-yl)thiazol-2-ylamino)phenyl)thiophene-2-carboxamide] | 205.6 | ≥ 2950 |  | 
C#Cc1cccc(Nc2ncnc3ccc(NC(=O)c4ccc(C(=O)Nc5ccccc5N)cc4)cc23)c1 [[37], N-(2-Amino-phenyl)-N′-[4-(3-ethynyl-phenylamino)-quinazolin-6-yl]-terephthalamide] | 253 to 258 | ≥ 240 |  | IC50 [2]: ≥ 500 nM; IC50 [3]: ≥ 560 nM
C#Cc1cccc(Nc2ncnc3ccc(NC(=O)c4ccc(C(=O)Nc5ccccc5N)s4)cc23)c1 [[38], Thiophene-2,5-dicarboxylic acid 2-[(2-amino-phenyl)-amide]-5-{[4-(3-ethynyl-phenylamino)-quinazolin-6-yl]-amide}] |  | ≥ 240 |  | IC50 [2]: ≥ 500 nM; IC50 [3]: ≥ 560 nM
C#Cc1cccc(Nc2ncnc3cc(NC(=O)c4ccc(C(=O)Nc5ccccc5N)cc4)ccc23)c1 [[41], N-(2-Amino-phenyl)-N′-[4-(3-ethynyl-phenylamino)-quinazolin-7-yl]-terephthalamide] |  |  |  | IC50 [3]: ≥ 560 nM
C#Cc1cccc(Nc2ncnc3cc(NC(=O)c4cccc(/C=C/C(=O)Nc5ccccc5N)c4)ccc23)c1 [[42], (E)-3-(3-(2-aminophenylamino)-3-oxoprop-1-enyl)-N-(4-(3-ethynylphenylamino)quinazolin-7-yl)benzamide] | 190 to 194.2 |  | ≥ 6.5 | 
Nc1ccccc1NC(=O)c1ccc(COc2ccc3ncnc(Nc4cccc(Br)c4)c3c2)cc1 [[43], N-(2-aminophenyl)-4-((4-(3-bromophenylamino)quinazolin-6-yloxy)-methyl)benzamide] | 215 to 218 |  |  | 
C#Cc1cccc(Nc2ncnc3ccc(OCc4ccc(C(=O)Nc5ccccc5N)cc4)cc23)c1 [[44], N-(2-aminophenyl)-4-((4-(3-ethynylphenylamino)quinazolin-6-yloxy)methyl)benzamide] |  |  | ≥ 6.5 | 
